The results in this text go back to ChEMBL document CHEMBL1143570, “Architecture of the human urotensin II receptor: comparison of the binding domains of peptide and non-peptide urotensin II agonists” (J Med Chem, 2005).

For this assay, the target named is T1, Urotensin-2 receptor (Homo sapiens, UniProt Q9UKP6).
T1 sequence (Q9UKP6 whole entry): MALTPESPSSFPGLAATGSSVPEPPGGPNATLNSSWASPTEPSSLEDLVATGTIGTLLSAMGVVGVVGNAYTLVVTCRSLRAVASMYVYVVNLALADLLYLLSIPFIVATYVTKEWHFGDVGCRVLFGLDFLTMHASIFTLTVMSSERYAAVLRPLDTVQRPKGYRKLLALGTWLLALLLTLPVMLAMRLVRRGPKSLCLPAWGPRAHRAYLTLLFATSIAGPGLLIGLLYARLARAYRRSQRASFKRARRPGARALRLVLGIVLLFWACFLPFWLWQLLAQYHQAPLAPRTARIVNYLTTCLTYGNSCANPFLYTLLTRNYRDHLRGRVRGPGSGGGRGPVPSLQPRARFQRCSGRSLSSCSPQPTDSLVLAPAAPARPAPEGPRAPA
Description: Agonist activity for human Urotensin 2 receptor. The format is functional.
One may read the EC50 as the concentration giving half of the maximal effect. Regarding `CCN(CC)CCC1C(c2ccccc2)=Nc2ccccc2SC1c1ccc(Cl)cc1` (stereo not drawn), the midpoint of the response, the EC50, lay at 6.3 µM.

`CN(C)CCC1(c2ccc(Cl)cc2)Cc2ccccc2C(=O)O1` (stereo not drawn) gave a concentration for a half-maximal effect (EC50) of 0.3 µM.

`CCN(CC)CCC1=C(c2ccccc2)NC(=O)N(C)C1c1ccc(Cl)cc1` (stereo not drawn): the 50% effective concentration (EC50) is 5 µM.
